Measured values from ChEMBL document CHEMBL1129529, “Synthesis and antiviral activity of pyranosylphosphonic acid nucleotide analogues” (J Med Chem, 1996).

Legend:
MRC5 [1] = test: Inhibitory activity against cytopathic effect of HSV-2(E 194) in MRC-5 cells; type: functional, cell-based; details: Homo sapiens
NHDF [2] = test: Inhibitory activity against replication of HCMV in NHDF cells; type: functional, cell-based; details: Homo sapiens
NHDF [3] = test: Cytotoxic activity against NHDF cell growth; type: functional; details: Homo sapiens
[4] = Selectivity index is defined as ratio between IC50(NHDF) / IC50(HCMV); type: functional
NHDF [5] = test: Inhibitory activity against replication of HCMV in NHDF cells; Not active; type: functional, cell-based, Homo sapiens
NHDF [6] = test: Cytotoxic activity against NHDF cell growth; Not active; type: functional, cell-based, Homo sapiens
MRC5 [7] = test: Inhibitory activity against cytopathic effect of HSV-2(E 194) in MRC-5 cells; Not active; type: functional, cell-based, Homo sapiens

CC1OC(P(=O)(O)O)=CCC1n1ccc(N)nc1=O (stereo not given)
IC50 (MRC5 [1]): > 400 µM
IC50 (NHDF [2]): 300 µM
CC50 (NHDF [3]): > 1000 µM
Selectivity ratio [4]: > 3.3

Nc1ccn([C@H]2CC=C(P(=O)(O)O)O[C@H]2CO)c(=O)n1
IC50 (NHDF [5]): Not Active
IC50 (NHDF [6]): Not Active
IC50 (MRC5 [7]): Not Active

Nc1ccn([C@@H]2CC=C(P(=O)(O)O)O[C@@H]2CO)c(=O)n1
IC50 (MRC5 [1]): 90 µM
IC50 (NHDF [2]): 40 µM
CC50 (NHDF [3]): > 1000 µM
Selectivity ratio [4]: > 25

Nc1nc(O)c2ncn([C@@H]3C=C[C@H](P(=O)(O)O)O[C@@H]3CO)c2n1
IC50 (MRC5 [1]): 275 µM
IC50 (NHDF [2]): > 300 µM
CC50 (NHDF [3]): > 1000 µM

Nc1ncnc2c1ncn2[C@@H]1C=C[C@@H](P(=O)(O)O)O[C@@H]1CO
IC50 (MRC5 [1]): 300 µM
IC50 (NHDF [2]): > 300 µM
CC50 (NHDF [3]): > 1000 µM

Nc1nc(O)c2ncn([C@@H]3CC=C(P(=O)(O)O)O[C@@H]3CO)c2n1
IC50 (NHDF [5]): Not Active
IC50 (NHDF [6]): Not Active
IC50 (MRC5 [7]): Not Active

Nc1ncnc2c1ncn2[C@@H]1C=C[C@H](P(=O)(O)O)O[C@@H]1CO
IC50 (NHDF [5]): Not Active
IC50 (NHDF [6]): Not Active
IC50 (MRC5 [7]): Not Active

Nc1ccn([C@@H]2C=C[C@H](P(=O)(O)O)O[C@@H]2CO)c(=O)n1
IC50 (MRC5 [1]): 85 µM
IC50 (NHDF [2]): 10 µM
CC50 (NHDF [3]): > 1000 µM
Selectivity ratio [4]: > 100

CC1OC(P(=O)(O)O)=CCC1n1cnc2c(N)ncnc21 (stereo not given)
IC50 (NHDF [5]): Not Active
IC50 (NHDF [6]): Not Active
IC50 (MRC5 [7]): Not Active

Nc1ccn([C@H]2C=C[C@@H](P(=O)(O)O)O[C@H]2CO)c(=O)n1
IC50 (NHDF [5]): Not Active
IC50 (NHDF [6]): Not Active
IC50 (MRC5 [7]): Not Active

Nc1nc(O)c2ncn(C3C=CC(P(=O)(O)O)OC3CO)c2n1 (stereo not given)
IC50 (NHDF [5]): Not Active
IC50 (NHDF [6]): Not Active
IC50 (MRC5 [7]): Not Active

CC1OC(P(=O)(O)O)C=CC1n1ccc(N)nc1=O (stereo not given)
IC50 (MRC5 [1]): > 400 µM
IC50 (NHDF [2]): 200 µM
CC50 (NHDF [3]): > 1000 µM
Selectivity ratio [4]: > 5

Nc1ncnc2c1ncn2C1CC=C(P(=O)(O)O)OC1CO (stereo not given)
IC50 (NHDF [2]): 90 µM
CC50 (NHDF [3]): > 1000 µM
Selectivity ratio [4]: > 11

Cc1cn([C@@H]2C=C[C@@H](P(=O)(O)O)O[C@@H]2CO)c(=O)[nH]c1=O
IC50 (NHDF [5]): Not Active
IC50 (NHDF [6]): Not Active
IC50 (MRC5 [7]): Not Active

Cc1cn(C2CC=C(P(=O)(O)O)OC2CO)c(=O)[nH]c1=O (stereo not given)
IC50 (NHDF [5]): Not Active
IC50 (NHDF [6]): Not Active
IC50 (MRC5 [7]): Not Active

Nc1ccn(C2CCC(P(=O)(O)O)OC2CO)c(=O)n1 (stereo not given)
IC50 (NHDF [2]): 80 µM
CC50 (NHDF [3]): > 1000 µM
Selectivity ratio [4]: > 12

Nc1ccn(C[C@@H](CO)OCP(=O)(O)O)c(=O)n1 [CIDOFOVIR]
IC50 (MRC5 [1]): 10 µM
IC50 (NHDF [2]): 0.5 µM
CC50 (NHDF [3]): 200 µM
Selectivity ratio [4]: 400

Cc1cn(C2CC=C(P(=O)(O)O)OC2C)c(=O)[nH]c1=O (stereo not given)
IC50 (NHDF [5]): Not Active
IC50 (NHDF [6]): Not Active
IC50 (MRC5 [7]): Not Active

Cc1cn(C2C=CC(P(=O)(O)O)OC2C)c(=O)[nH]c1=O (stereo not given)
IC50 (NHDF [5]): Not Active
IC50 (NHDF [6]): Not Active
IC50 (MRC5 [7]): Not Active

Cc1cn([C@@H]2C=C[C@H](P(=O)(O)O)O[C@@H]2CO)c(=O)[nH]c1=O
IC50 (NHDF [5]): Not Active
IC50 (NHDF [6]): Not Active
IC50 (MRC5 [7]): Not Active
